Laboratory results reported in patent publication US6486173B2, “5-HT7 receptor antagonists” (Bristol-Myers Squibb Pharma Company, priority 1998, dated 2002).

System: not given
Conditions: not given

| Compound | melting point |
| --- | --- |
| O=C(CCCN1CC[C@@H]2CCCC[C@H]2C1)c1ccc(F)cc1.O=C(O)/C=C\C(=O)O (racemic) | 157 to 158 °C |
| O=C(O)/C=C\C(=O)O.O=c1[nH]c2ccccc2n1CCCN1CCc2ccccc2C1 | 153 to 154 °C |
| O=C(O)/C=C\C(=O)O.OC(CCCN1Cc2ccccc2C1)c1ccc(F)cc1 (stereo not drawn) | 113 to 114 °C |
| Cl.Fc1ccc(SCCCN2CCc3ccccc3C2)cc1 | 171 to 173 °C |
| COc1cc2c(cc1OC)CN(CCCC(=O)c1ccc(F)cc1)CC2.O=C(O)/C=C\C(=O)O | 144 to 146 °C |
| O=C(CCCN1CCc2ccccc2C1)c1ccc(F)cc1.O=C(O)/C=C\C(=O)O | 129 to 130 °C |
| O=C(O)/C=C\C(=O)O.c1ccc(-c2cc(CN3CCc4ccccc4C3)on2)cc1 | 190 to 192 °C |
| Fc1ccc(C2(CCCN3Cc4ccccc4C3)OCCO2)cc1.O=C(O)/C=C\C(=O)O | 141 to 142 °C |
| Cc1ccc(C2(CCCN3Cc4ccccc4C3)OCCO2)cc1.O=C(O)/C=C\C(=O)O | 159 to 161 °C (dec.) |
| Cl.O=S(=O)(c1ccc(F)cc1)N1CCC(N2CCc3ccccc3C2)CC1 | > 240 °C |
| O=C(CCCN1Cc2cccc3cccc(c23)C1)c1ccc(F)cc1.O=C(O)/C=C\C(=O)O | 151 to 155 °C |
| Cl.O=S(=O)(CCCN1CCc2ccccc2C1)c1ccc(F)cc1 | 212 to 215 °C |
| Cl.Fc1ccc(SCCCN2Cc3ccccc3C2)cc1 | 125 to 126 °C |
| Fc1ccc(OCCCN2Cc3ccccc3C2)cc1.O=C(O)/C=C\C(=O)O | 115 to 117 °C |
| Fc1ccc(C2(CCCN3CCc4ccccc4C3)OCCO2)cc1.O=C(O)/C=C\C(=O)O | 160 to 162 °C |
| O=C(CCCN1Cc2cc3ccccc3cc2C1)c1ccc(F)cc1.O=C(O)/C=C\C(=O)O | 157 to 158 °C |
| O=C(O)/C=C\C(=O)O.O=S(=O)(CCCN1Cc2ccccc2C1)c1ccc(F)cc1 | 151 to 152 °C |
| Fc1ccc(C2=NOC(CN3CCc4ccccc4C3)C2)cc1.O=C(O)/C=C\C(=O)O (racemic) | 153 to 155 °C |
| O=C(CCCN1CCc2ccccc2C1)c1ccncc1.O=C(O)/C=C\C(=O)O | 108 to 109 °C |
| O=C(CCCN1CCc2ccccc2C1)c1cccs1.O=C(O)/C=C\C(=O)O | 154 to 155 °C |

Target: 5-HT7 receptor (Homo sapiens, UniProt P34969)
Conditions: background statement; profile consistent across species; cited from earlier work

5-HT7 receptor, sequence (P34969 whole entry): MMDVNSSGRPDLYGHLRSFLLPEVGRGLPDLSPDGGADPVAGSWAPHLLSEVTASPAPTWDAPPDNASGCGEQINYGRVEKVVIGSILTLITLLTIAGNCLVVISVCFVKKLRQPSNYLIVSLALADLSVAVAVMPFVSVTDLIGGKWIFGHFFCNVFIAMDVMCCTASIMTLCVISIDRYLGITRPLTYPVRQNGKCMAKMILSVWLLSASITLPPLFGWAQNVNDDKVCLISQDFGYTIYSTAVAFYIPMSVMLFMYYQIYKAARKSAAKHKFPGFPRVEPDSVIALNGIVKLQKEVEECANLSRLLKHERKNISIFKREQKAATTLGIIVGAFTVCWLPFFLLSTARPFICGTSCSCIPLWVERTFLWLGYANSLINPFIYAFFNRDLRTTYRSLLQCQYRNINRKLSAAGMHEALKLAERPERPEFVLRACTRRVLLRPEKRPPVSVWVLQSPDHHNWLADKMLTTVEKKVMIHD

| Compound | 5-HT7 receptor affinity |
| --- | --- |
| Cc1nc2sccn2c(=O)c1CCN1CCC(=C(c2ccc(F)cc2)c2ccc(F)cc2)CC1 [ritanserin] | moderate affinity |
| O=C1CC2(CCCC2)CC(=O)N1CCCCN1CCN(c2ncccn2)CC1 [buspirone] | low affinity |
| 5-HT [Example 5-HT] | high 5-HT7 receptor affinity |
| CNS(=O)(=O)Cc1ccc2[nH]cc(CCN(C)C)c2c1 [sumatriptan] | low affinity |

Same assay, conditions: cited from earlier work

| Compound | 5-HT7 receptor affinity |
| --- | --- |
| COc1ccc2[nH]cc(CCN)c2c1 [Example 5-MeOT, 5-MeOT] | high 5-HT7 receptor affinity |
| CC(C)NCC(O)COc1cccc2[nH]ccc12 (stereo not drawn) [pindolol] | low affinity |
| CCCN(CCC)C1CCc2cccc(O)c2C1 (stereo not drawn) [Example 8-OHDPAT, 8-OHDPAT] | moderate affinity |
